Assay results as given in ChEMBL document CHEMBL1201862, “PubChem BioAssay data set” (2004).
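Growth conditions: 96-well plates. Treatment: test compound, 48 hours, 5 concentrations. Analysis: linear interpolation between bracketing concentrations; unreached endpoints set to highest concentration. GI50 is the concentration that inhibits growth by half.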 The source made the active and inactive calls. No stated cut-off is given here; in the data, active = GI50 up to about 1.1 µM and inactive = higher.

Legend:
Assay in all cases: inhibition of tumour cell growth, NCI panel, 48 h
MDA-MB-231 = system: MDA-MB-231
M14 = system: M14
SK-OV-3 = system: SK-OV-3
SR = system: SR
HOP-92 = system: HOP-92
SNB-19 = system: SNB-19
SK-MEL-2 = system: SK-MEL-2
K562 = system: K562
UO-31 = system: UO-31
HOP-62 = system: HOP-62
A549 = system: A549
SNB-75 = system: SNB-75
ACHN = system: ACHN
RXF 393 = system: RXF 393
HCT-15 = system: HCT-15
RPMI-8226 = system: RPMI-8226
NCI-H522 = system: NCI-H522
KM-20L2 = system: KM-20L2
DMS-114 = system: DMS-114

## CC(=O)N(CN1C(=O)CCC1C(=O)O)c1ccccc1 (stereo not drawn)
MDA-MB-231
  GI50: > 48.8 µM (inactive)
M14
  GI50: > 54.5 µM (inactive)
SK-OV-3
  GI50: > 56.1 µM (inactive)
SR
  GI50: > 100 µM (inactive)
HOP-92
  GI50: > 63.1 µM (inactive)
SNB-19
  GI50: > 55.1 µM (inactive)
SK-MEL-2
  GI50: > 54.7 µM (inactive)
K562
  GI50: > 53 µM (inactive)
UO-31
  GI50: > 56.9 µM (inactive)
HOP-62
  GI50: > 55.6 µM (inactive)
A549
  GI50: > 55.1 µM (inactive)
SNB-75
  GI50: > 56.5 µM (inactive)
ACHN
  GI50: > 56.6 µM (inactive)
RXF 393
  GI50: > 60.3 µM (inactive)
HCT-15
  GI50: > 100 µM
RPMI-8226
  GI50: > 55.2 µM (inactive)
NCI-H522
  GI50: > 53 µM (inactive)

## CC1OC(n2ccc3ccc([N+](=O)[O-])cc32)C(O)C(O)C1O (stereo not drawn)
M14
  GI50: > 100 µM (inactive)
SK-OV-3
  GI50: > 100 µM (inactive)
KM-20L2
  GI50: > 100 µM (inactive)
SR
  GI50: > 100 µM (inactive)
HOP-92
  GI50: > 100 µM (inactive)
SNB-19
  GI50: > 100 µM (inactive)
SK-MEL-2
  GI50: > 100 µM (inactive)
K562
  GI50: > 100 µM (inactive)
UO-31
  GI50: > 100 µM (inactive)
HOP-62
  GI50: > 100 µM (inactive)
A549
  GI50: > 100 µM (inactive)
SNB-75
  GI50: > 100 µM (inactive)
ACHN
  GI50: > 100 µM (inactive)
RXF 393
  GI50: > 100 µM (inactive)
HCT-15
  GI50: > 100 µM
DMS-114
  GI50: > 100 µM (inactive)
RPMI-8226
  GI50: > 100 µM (inactive)
NCI-H522
  GI50: > 100 µM (inactive)

## CC1=CCC[C@@]2(C)C(CC[C@@H]2C(C)/C=C/C(C)C)c2ccc(cc2C(=O)O)C[C@@H](O)CC1 (stereo partly drawn)
M14
  GI50: 16.9 µM (inactive)
SK-OV-3
  GI50: 18.1 µM (inactive)
SR
  GI50: 13.5 µM (inactive)
HOP-92
  GI50: 14.4 µM (inactive)
SNB-19
  GI50: 5.2 µM (inactive)
SK-MEL-2
  GI50: 17.1 µM (inactive)
K562
  GI50: 9.89 µM (inactive)
UO-31
  GI50: 15.7 µM (inactive)
HOP-62
  GI50: 20 µM (inactive)
A549
  GI50: 6.14 µM (inactive)
SNB-75
  GI50: 13.8 µM (inactive)
ACHN
  GI50: 6.37 µM (inactive)
RXF 393
  GI50: 15.9 µM (inactive)
HCT-15
  GI50: 5.07 µM
DMS-114
  GI50: 18.5 µM (inactive)
RPMI-8226
  GI50: 3.63 µM (inactive)
NCI-H522
  GI50: 13.5 µM (inactive)

## Cc1ccc(C(=O)Nc2ccccc2)cc1/N=N/N(C)C
M14
  GI50: > 100 µM (inactive)
KM-20L2
  GI50: > 10 µM (inactive)
HOP-92
  GI50: > 100 µM (inactive)
SNB-19
  GI50: > 100 µM (inactive)
SK-MEL-2
  GI50: > 100 µM (inactive)
UO-31
  GI50: > 100 µM (inactive)
HOP-62
  GI50: > 100 µM (inactive)
A549
  GI50: > 100 µM (inactive)
ACHN
  GI50: > 100 µM (inactive)
HCT-15
  GI50: > 100 µM
NCI-H522
  GI50: 35.2 µM (inactive)

## COc1cccc(C(NC2=NCCC=N2)c2cc3c(cc2O)OCO3)c1O (stereo not drawn)
MDA-MB-231
  GI50: 23.6 µM (inactive)
M14
  GI50: 27.4 µM (inactive)
SK-OV-3
  GI50: 94 µM (inactive)
SR
  GI50: 11.6 µM (inactive)
HOP-92
  GI50: 23.7 µM (inactive)
SNB-19
  GI50: 46.1 µM (inactive)
SK-MEL-2
  GI50: 24.4 µM (inactive)
K562
  GI50: 17.9 µM (inactive)
UO-31
  GI50: 35.6 µM (inactive)
HOP-62
  GI50: 25.7 µM (inactive)
A549
  GI50: 41.1 µM (inactive)
SNB-75
  GI50: 23.3 µM (inactive)
ACHN
  GI50: 48 µM (inactive)
RXF 393
  GI50: 23.8 µM (inactive)
HCT-15
  GI50: 14.1 µM
RPMI-8226
  GI50: 21.5 µM (inactive)
NCI-H522
  GI50: 15.8 µM (inactive)

## C=C(C)C(O)C(O)c1c(OC)ccc2ccc(=O)oc12 (stereo not drawn)
MDA-MB-231
  GI50: > 100 µM (inactive)
M14
  GI50: > 100 µM (inactive)
SK-OV-3
  GI50: > 100 µM (inactive)
SR
  GI50: > 100 µM (inactive)
HOP-92
  GI50: > 100 µM (inactive)
SNB-19
  GI50: > 100 µM (inactive)
SK-MEL-2
  GI50: > 100 µM (inactive)
K562
  GI50: > 100 µM (inactive)
UO-31
  GI50: > 100 µM (inactive)
HOP-62
  GI50: > 100 µM (inactive)
A549
  GI50: > 100 µM (inactive)
SNB-75
  GI50: > 100 µM (inactive)
ACHN
  GI50: > 100 µM (inactive)
RXF 393
  GI50: > 100 µM (inactive)
HCT-15
  GI50: > 100 µM
RPMI-8226
  GI50: > 100 µM (inactive)
NCI-H522
  GI50: > 100 µM (inactive)

## N#CC(C#N)=C(N)/C(C#N)=C/c1ccc(O)c(O)c1
MDA-MB-231
  GI50: > 100 µM (inactive)
M14
  GI50: > 100 µM (inactive)
SK-OV-3
  GI50: > 100 µM (inactive)
KM-20L2
  GI50: 25.1 µM (inactive)
SR
  GI50: 29.3 µM (inactive)
HOP-92
  GI50: 43.6 µM (inactive)
SNB-19
  GI50: > 92.5 µM (inactive)
SK-MEL-2
  GI50: > 100 µM (inactive)
K562
  GI50: 48.8 µM (inactive)
UO-31
  GI50: 37.2 µM (inactive)
HOP-62
  GI50: 15.5 µM (inactive)
A549
  GI50: > 100 µM (inactive)
SNB-75
  GI50: 74.8 µM (inactive)
ACHN
  GI50: > 85.7 µM (inactive)
RXF 393
  GI50: > 100 µM (inactive)
HCT-15
  GI50: 44.5 µM
DMS-114
  GI50: 25.1 µM (inactive)
RPMI-8226
  GI50: 71.3 µM (inactive)
NCI-H522
  GI50: > 61.2 µM (inactive)

## COc1ccc(-c2cc(=O)c3c(OC)c(OC)c(OC)c(OC)c3o2)cc1 [TANGERETIN]
MDA-MB-231
  GI50: 28.8 µM (inactive)
M14
  GI50: 76.9 µM (inactive)
SK-OV-3
  GI50: 99.8 µM (inactive)
SR
  GI50: > 100 µM (inactive)
HOP-92
  GI50: 20.2 µM (inactive)
SNB-19
  GI50: > 100 µM (inactive)
SK-MEL-2
  GI50: 90.6 µM (inactive)
K562
  GI50: 37.8 µM (inactive)
UO-31
  GI50: 37.5 µM (inactive)
HOP-62
  GI50: 82.6 µM (inactive)
A549
  GI50: 51.6 µM (inactive)
SNB-75
  GI50: 46.8 µM (inactive)
ACHN
  GI50: 57 µM (inactive)
RXF 393
  GI50: 45.4 µM (inactive)
HCT-15
  GI50: 35 µM
RPMI-8226
  GI50: 67 µM (inactive)
NCI-H522
  GI50: 15.3 µM (inactive)
